Like-named read-outs stand apart in the source and are kept apart here.
What was measured:
xanthine oxidase = xanthine oxidase (Homo sapiens, UniProt P47989)
albumin = target: T1, albumin (Homo sapiens, UniProt P02768); test: Binding to albumin in the blood; format: in vitro ADME
T1 construct: from tissue; host or cells: blood / plasma

[1] = Bioavailability of febuxostat released in various locations of the gastrointestinal tract (site of absorption study); format: in vivo, human; details: humans
Experimental: Subjects all received regimens in a crossover fashion according to a randomization schedule. Extra periods (up to 2 per subject) were added where subject dose release issues required repeating a regimen. There was a washout interval of at least 7 days between the dose in a period and the next dose in the subsequent period.
The method utilizes protein precipitation with acetonitrile of a 100-μL aliquot of plasma, with a lower limit of detection of 10.0 ng/mL.
Pharmacokinetic parameters for febuxostat were estimated using standard noncompartmental methods. Calculations were performed using the WinNonlin Pro Version 5.2 (Mountain View, Calif., USA). The descriptive statistics for pharmacokinetic parameter estimates were computed. […] The subjects who had improper capsule release were allowed to repeat up to two extra periods after their scheduled sequence had ended. For ANOVA purposes, the missing or incomplete data from the periods with improper capsule release was replaced by the data from the corresponding repeated periods using the originally planned period for that regimen.

[2] = Phase 1 single-dose 5-way crossover study of four extended release and one immediate release febuxostat formulation; format: in vivo, human; details: all subjects, all formulations
Description: This examples describes the results of a phase 1, single-center, open-label, randomized, 5-way crossover study. Thirty-five adult male and female subjects aged 18 to 55 years, inclusive, in good health, were selected to participate in this study.

clinical [3] = details: human, plasma, po
clinical [4] = details: human, in vivo; for Vd/F: Vss/F
Experimental: The development of the previously described embodiments resulted from a long drug development process. […] The study was also designed to assess the pharmacokinetic and pharmacodynamic profiles of multiple daily oral doses over a range of doses and ranges, including both once-daily and twice-daily administration.
Samples were analyzed by high performance liquid chromatography.

[5] = cited from earlier work; for fu (free fraction in plasma): in %
[6] = Absorption of febuxostat from various regions of the gastro-intestinal tract in rats; format: in vivo, rat
Description: The pharmacokinetic data obtained in the clinical trial referenced above was subsequently used to develop estimated plasma profiles for various febuxostat formulations, including extended release matrix tablets, two-pulse febuxostat formulations, and three-pulse febuxostat formulations. The estimated extended release formulation data was based on a matrix formulation incorporating one or more polymers, and the estimated two-pulse and three-pulse formulation data was based on a formulation incorporating two or more types of beads with differing release profiles. This information and methodology is discussed in Example 2. Additionally, as part of the development process for an extended release febuxostat formulation, various sites of absorption were investigated to determine the optimal physiologic sites of drug absorption for an extended release febuxostat formulation. In early pre-clinical studies, absorption of febuxostat from various regions of the gastro-intestinal tract was studied in rats. […] To guide development of a dosage form that provided the desired plasma concentration-time profile, a site of absorption study was conducted in humans.

[7] = normal patients, 14C, nominal 1 μg/mL
[8] = patients with severe renal impairment

xanthine oxidase, sequence (P47989 whole entry): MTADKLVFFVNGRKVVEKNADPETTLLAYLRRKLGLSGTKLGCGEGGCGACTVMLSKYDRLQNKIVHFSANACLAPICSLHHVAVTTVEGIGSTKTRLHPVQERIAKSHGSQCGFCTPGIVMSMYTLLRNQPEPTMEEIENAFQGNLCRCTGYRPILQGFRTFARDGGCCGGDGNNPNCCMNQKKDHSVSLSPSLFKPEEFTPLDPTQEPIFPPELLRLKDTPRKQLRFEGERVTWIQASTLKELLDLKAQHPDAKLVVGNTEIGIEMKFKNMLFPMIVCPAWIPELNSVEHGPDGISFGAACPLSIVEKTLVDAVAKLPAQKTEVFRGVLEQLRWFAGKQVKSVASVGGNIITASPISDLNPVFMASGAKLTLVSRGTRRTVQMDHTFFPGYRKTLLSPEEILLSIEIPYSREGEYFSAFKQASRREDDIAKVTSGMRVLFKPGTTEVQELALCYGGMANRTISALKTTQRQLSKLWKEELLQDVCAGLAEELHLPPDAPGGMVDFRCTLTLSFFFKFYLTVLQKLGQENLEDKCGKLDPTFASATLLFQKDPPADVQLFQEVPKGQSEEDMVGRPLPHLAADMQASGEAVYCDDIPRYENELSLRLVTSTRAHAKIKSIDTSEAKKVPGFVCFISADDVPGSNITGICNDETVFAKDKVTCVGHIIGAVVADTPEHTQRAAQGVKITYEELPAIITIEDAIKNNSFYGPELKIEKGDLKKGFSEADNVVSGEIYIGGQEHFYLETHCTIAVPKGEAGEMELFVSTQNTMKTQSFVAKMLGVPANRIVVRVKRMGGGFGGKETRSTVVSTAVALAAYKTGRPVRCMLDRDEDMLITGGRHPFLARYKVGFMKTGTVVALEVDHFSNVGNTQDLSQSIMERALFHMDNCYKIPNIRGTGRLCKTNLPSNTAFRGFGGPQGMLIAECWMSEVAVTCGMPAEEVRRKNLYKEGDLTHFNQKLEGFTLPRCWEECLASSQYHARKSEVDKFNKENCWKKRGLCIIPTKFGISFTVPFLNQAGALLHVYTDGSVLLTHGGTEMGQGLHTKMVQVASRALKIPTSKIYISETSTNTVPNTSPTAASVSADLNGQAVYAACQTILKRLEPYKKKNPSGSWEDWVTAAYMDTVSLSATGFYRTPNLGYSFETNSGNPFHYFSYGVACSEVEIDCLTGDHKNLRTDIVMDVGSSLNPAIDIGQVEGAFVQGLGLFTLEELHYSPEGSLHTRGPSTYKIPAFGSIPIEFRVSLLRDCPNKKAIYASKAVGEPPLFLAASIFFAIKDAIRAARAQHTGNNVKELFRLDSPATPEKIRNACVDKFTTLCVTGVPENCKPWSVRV
T1 sequence (P02768 25-609): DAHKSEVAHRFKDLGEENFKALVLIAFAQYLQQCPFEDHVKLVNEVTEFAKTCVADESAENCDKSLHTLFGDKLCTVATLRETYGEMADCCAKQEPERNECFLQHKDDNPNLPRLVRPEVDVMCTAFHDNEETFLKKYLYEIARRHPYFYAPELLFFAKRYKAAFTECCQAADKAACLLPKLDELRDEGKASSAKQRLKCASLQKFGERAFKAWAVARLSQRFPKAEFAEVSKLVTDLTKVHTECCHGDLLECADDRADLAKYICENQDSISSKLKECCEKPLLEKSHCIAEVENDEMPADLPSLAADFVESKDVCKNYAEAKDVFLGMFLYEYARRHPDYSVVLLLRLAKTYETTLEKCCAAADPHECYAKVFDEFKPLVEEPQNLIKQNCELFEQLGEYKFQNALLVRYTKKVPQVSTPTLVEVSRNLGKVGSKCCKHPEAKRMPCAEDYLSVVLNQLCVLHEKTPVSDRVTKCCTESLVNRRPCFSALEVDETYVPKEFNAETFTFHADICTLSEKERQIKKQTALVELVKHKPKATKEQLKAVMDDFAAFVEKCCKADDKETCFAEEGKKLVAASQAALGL

Structure (SMILES): Cc1nc(-c2ccc(OCC(C)C)c(C#N)c2)sc1C(=O)O [Febuxostat, 2-[3-cyano-4-(2-methylpropoxy)phenyl]-4-methylthiazole-5-carboxylic acid]
- time with at least 80% inhibition of xanthine oxidase (xanthine oxidase; 120 mg immediate release dosage forms, other studies): ~14 h
- time with at least 80% inhibition of xanthine oxidase (xanthine oxidase; 240 mg immediate release dosage forms, further studies): about 22 hours
- bound to albumin in the blood (albumin): ~99.3%
- absorption in the colon compared to immediate release, proximal intestine and distal intestine [1]: approximately 40%
- absorption lag-time after oral dosing [2]: no absorption lag-time
- Cmax (clinical [3]; 120 mg): ~3900 ng/mL
- Cmax (clinical [3]; 240 mg): 10200 ng/mL
- Vd (clinical [4]): ~0.7 L/kg
- half-life (clinical [4]): ~6 h
- Cmax (clinical [4]; 10 mg): 399.5 ng/mL
- Tmax (clinical [4]; 10 mg): 0.70 h
- Vss/F (clinical [4]; 10 mg): 42.7 L
- AUC (clinical [4]; 10 mg, AUC (AUC24)): 950 ng·h/mL
- AUC(0-inf) (clinical [4]; 10 mg): 727 ng·h/mL
- Cmax (clinical [4]; 10 mg, Cmax): 336 ng/mL
- Vd/F (clinical [4]; 10 mg): 38.2 L
- Tmax (clinical [4]; 10 mg, tmax): 0.99 h
- Cmax (clinical [4]; 20 mg): 934.2 ng/mL
- Vss/F (clinical [4]; 20 mg): 33.3 L
- AUC (clinical [4]; 20 mg, AUC (AUC24)): 2110 ng·h/mL
- AUC(0-inf) (clinical [4]; 20 mg): 2180 ng·h/mL
- Cmax (clinical [4]; 20 mg, Cmax): 1110 ng/mL
- Vd/F (clinical [4]; 20 mg): 29.2 L
- Tmax (clinical [4]; 20 mg, tmax): 1.06 h
- AUC (AUC12) (clinical [4]; 30 mg): 3308.3 ng·h/mL
- AUC (AUC∞) (clinical [4]; 30 mg): 2816.9 ng·h/mL
- AUC (clinical [4]; 30 mg, AUC (AUC12)): 2910 ng·h/mL
- AUC (clinical [4]; 30 mg, AUC (AUC24)): 2570 ng·h/mL
- AUC(0-inf) (clinical [4]; 30 mg): 2550 ng·h/mL
- Cmax (clinical [4]; 30 mg, Cmax): 1120 ng/mL
- Cmax (clinical [4]; 40 mg): 1822.1 ng/mL
- Vss/F (clinical [4]; 40 mg): 49.5 L
- AUC (clinical [4]; 40 mg, AUC (AUC24)): 4300 ng·h/mL
- AUC(0-inf) (clinical [4]; 40 mg): 3980 ng·h/mL
- Cmax (clinical [4]; 40 mg, Cmax): 1530 ng/mL
- Vd/F (clinical [4]; 40 mg): 48.7 L
- Tmax (clinical [4]; 40 mg, tmax): 1.44 h
- Cmax (clinical [4]; 50 mg): 1791.7 ng/mL
- Vss/F (clinical [4]; 50 mg): 59.1 L
- AUC (clinical [4]; 50 mg, AUC (AUC24)): 4380 ng·h/mL
- AUC(0-inf) (clinical [4]; 50 mg): 4410 ng·h/mL
- Cmax (clinical [4]; 50 mg, Cmax): 1970 ng/mL
- Vd/F (clinical [4]; 50 mg): 43.2 L
- Tmax (clinical [4]; 50 mg, tmax): 0.78 h
- Cmax (clinical [4]; 70 mg): 2689.9 ng/mL
- Vss/F (clinical [4]; 70 mg): 54.1 L
- AUC (clinical [4]; 70 mg, AUC (AUC24)): 6950 ng·h/mL
- AUC(0-inf) (clinical [4]; 70 mg): 6930 ng·h/mL
- Cmax (clinical [4]; 70 mg, Cmax): 3080 ng/mL
- Vd/F (clinical [4]; 70 mg): 41.6 L
- Tmax (clinical [4]; 70 mg, tmax): 1 h
- Cmax (clinical [4]; 90 mg): 4058.9 ng/mL
- Vss/F (clinical [4]; 90 mg): 63.7 L
- AUC (clinical [4]; 90 mg, AUC (AUC24)): 9650 ng·h/mL
- AUC(0-inf) (clinical [4]; 90 mg): 9090 ng·h/mL
- Cmax (clinical [4]; 90 mg, Cmax): 3480 ng/mL
- Vd/F (clinical [4]; 90 mg): 56.7 L
- Tmax (clinical [4]; 90 mg, tmax): 0.95 h
- Cmax (clinical [4]; 120 mg): 5307.6 ng/mL
- Vss/F (clinical [4]; 120 mg): 55.1 L
- AUC (clinical [4]; 120 mg, AUC (AUC24)): 12000 ng·h/mL
- AUC(0-inf) (clinical [4]; 120 mg): 11300 ng·h/mL
- Cmax (clinical [4]; 120 mg, Cmax): 4470 ng/mL
- Vd/F (clinical [4]; 120 mg): 57.8 L
- Tmax (clinical [4]; 120 mg, tmax): 1 h
- Cmax (clinical [4]; 160 mg): 8771.1 ng/mL
- Vss/F (clinical [4]; 160 mg): 36.1 L
- AUC (clinical [4]; 160 mg, AUC (AUC24)): 22300 ng·h/mL
- AUC(0-inf) (clinical [4]; 160 mg): 20700 ng·h/mL
- Cmax (clinical [4]; 160 mg, Cmax): 7300 ng/mL
- Vd/F (clinical [4]; 160 mg): 40.7 L
- Tmax (clinical [4]; 160 mg, tmax): 0.75 h
- Cmax (clinical [4]; 180 mg): 8048.8 ng/mL
- Tmax (clinical [4]; 180 mg): 1.00 h
- Vss/F (clinical [4]; 180 mg): 45.6 L
- AUC (clinical [4]; 180 mg, AUC (AUC24)): 24000 ng·h/mL
- AUC(0-inf) (clinical [4]; 180 mg): 25600 ng·h/mL
- Cmax (clinical [4]; 180 mg, Cmax): 8400 ng/mL
- Vd/F (clinical [4]; 180 mg): 54.6 L
- Tmax (clinical [4]; 180 mg, tmax): 1.07 h
- Cmax (clinical [4]; 240 mg): 11263 ng/mL
- Vss/F (clinical [4]; 240 mg): 31.3 L
- AUC (clinical [4]; 240 mg, AUC (AUC24)): 35000 ng·h/mL
- AUC(0-inf) (clinical [4]; 240 mg): 28300 ng·h/mL
- Cmax (clinical [4]; 240 mg, Cmax): 8390 ng/mL
- Vd/F (clinical [4]; 240 mg): 54.6 L
- Tmax (clinical [4]; 240 mg, tmax): 1.06 h
- oral clearance from the plasma (clinical [4]; po): 7.3 to 15.1 L/h
- Tmax (clinical [4]; po, tmax): ~1 h
- percent free fraction of febuxostat in plasma ([5]; male, female, younger and elderly group of subjects): 0.7±0.1%
- percent fu [5, 7]: 0.9±0.2%
- fu (free fraction in plasma) [5, 7]: 0.9±0.2
- percent fu [5, 8]: 1.2±0.2%
- fu (free fraction in plasma) [5, 8]: 1.2±0.2
- absorption from the colonic region [6]: very poor

Source: US9248119B2, “Modified release dosage forms of xanthine oxidoreductase inhibitor or xanthine oxidase inhibitors” (Takeda Pharmaceuticals U.S.A., Inc., priority 2010, dated 2016)
